Patent publication US9085605B2, “Chemical synthesis and anti-tumor and anti-metastatic effects of dual functional conjugate” (Shenzhen Salubris Pharmaceuticals Co., Ltd., priority 2010, dated 2015)
Like-named read-outs stand apart in the source and are kept apart here.

Legend:
lewis lung cancer [1] = settings: TAXOL 6 mg/kg i.p. once daily
Experimental: C57Bl/6 mice with lewis lung cancer were sacrificed and the tumor was removed. The tumor cell suspension (5×10^6 cell/mL) was prepared in a sterile condition. The suspension (0.2 mL/mice, 1×10^6 tumor cell) was inoculated subcutaneously into the axillary of 24 C57Bl/6 mice. […] From the 7th day after the implantation, the long diameter and short diameter of tumor was measured every 2 days. Tumor volume was calculated by the formula (½)×long diameter×short diameter^2. Drug was withdrawn on the eighteenth day after the implantation. All mice were then sacrificed and the body weight was measured. The tumors, spleen and lung were removed and weighed. The lungs were fixed in Bouin's fixative for 24 h. The numbers of lung metastasis nodule were counted, and the statistics was evaluated by Mann-Whitney U test.

[2] = system: human breast cancer line MDA-MB-231; test: Tumor growth inhibition in nude mice xenograft model, MDA-MB-231; settings: Paclitaxel 24 mg/kg × 4, intermittent i.p.
Experimental: • 1. […] Drug administration dose were set as: 10 mg/kg, 15 mg/kg, and 20 mk/kg, drug administration volume was 0.2 mL/20 g. • 2. […] MDA [Peptide (P) 0.54 mg/mL (0.001M), Example 10], a colorless and clear liquid, was prepared by the commission, can be directly used after the repackaging in a sterile condition, stored at 4° C. […] Certificate NO. […] SYSK (BeiJing) 2004-0001. Experiment Methods:
The mice were divided into groups and administrated drug after 11 days.
The mice were divided into eight groups, each group had 6-8 mice. The groups contained Negative control. […] After grouping, all mice were administrated with drug by intraperitoneal injection once a day depends on their body weight.
Other groups were administered with drugs for 24 times successively. The experiment was completed 24 h after the last administration.
The mice were sacrificed, and tumors were isolated and their weight was measured, and the inhibition rate of tumor growth by drugs were calculated. […] Calculation methods and formula were omitted.

Human lung cancer H460 = settings: for TGI: 24 mg/kg
From the text: Through cell culture in vitro, the tumor was inoculated on nude mice, the tumor grew and passaged for the experiment use. • Animals: BALB/c nude mice, ♀, 4˜5 weeks old, were obtained from the Experimental Lab, Chinese Academy of Medical Science, Certificate NO. […] Experiment Method:
The tumor-bearing mice with good tumor growth and good general physical condition were selected and sacrificed. Tumor was isolated in a sterile condition and cut into fragments (diameter for about 2-3 mm) by surgical knife. The fragments were then hypodermically inoculated in posterior axillary of nude mice by means of a trocar.
After the tumors grew naturally for eight days, the average volume of tumors reaches 130 mm^3. The length and width of tumor was measured using vernier calipers, and divided into groups by the tumor volume.
The mice were divided into five groups for observation, each groups had eight mice. […] Respective drug was administrated for each group from the grouping day.
The experiment was terminated 24 hours after the last administration.
During the experimentation, the tumors sizes (length and width) and body weights of mice were measured once every three days. The tumor volume (TV) and relative tumor volume (RTV) were calculated according to the method for references, and the tumor volume growth tendency chart was plotted.
At the end of the experiment, the mice were sacrificed. Tumors were removed and weighed, and the inhibition rate of the tumor growth by drugs was calculated. Statistical significance of the tumor weight, tumor volume and RTV level were evaluated by t-test.
[formula] • (C, average tumor weight of control group; T, average tumor weight of administrated group) • Tumor Volume (TV)=length×width^2/2. • Relative Tumor Volume (RTV) formula: Vt/Vo • (Vo is the volume of TV at the beginning of the grouping, and Vt is the volume of TV at measure time) • Anti-tumor activities were evaluated by Tumor Relative proliferation Rate T/C (%)
[formula] • Therapeutic effect evaluation standard: T/C (%)>40, was judged as invalid; • T/C (%)≦40, and through statistical evaluation P<0.05, was judged as valid.

lewis lung cancer [3] = test: Anti-artificial metastasis on Lewis lung cancer in mice (intravenous inoculation); format: in vivo, C57Bl/6 mice; settings: TAXOL 3 mg/kg i.p.
Experimental: The suspension (0.2 mL/mice, 3×10^5 tumor cell) was inoculated intravenously into the tails of fifty C57Bl/6 mice. […] The tumors, spleen and lung were removed and weighed.

[4] = system: Mice breast cancer cell line (4T1, ATCC CRL2539); settings: TAXOL 3 mg/kg i.p. once daily
Experimental: Mice breast cancer cell line (4T1, ATCC CRL2539) was a generous gift from Prof. Wei Liang of the Institute of biophysics, Chinese Academy of Sciences. The cell was cultured in the 1640 medium (Gibco) containing 10% fetal bovine serum (FBS), 1% glutamine and 1% penicillin.
4T1 cells in logarithmic phase were collected and the concentration was adjusted to 2×10^6/mL. 4T1 tumors were introduced in female BALB/c mice by injecting subcutaneously into the fourth fat pad area of the right abdominal mammary gland with the dose of 2×10^5/0.1 mL. […] From the 9th day after implantation, tumor growth was measured every 2 days with vernier calipers for determining the long diameter and short diameter of tumor. Tumor volume was calculated by the formula (½)×long diameter×short diameter^2. Drug was withdrawn on the twenty-eight days after the implantation, all mice were then sacrificed and the body weight were measured. The tumors, spleen and lung were removed and weighed. The lungs were fixed in Bouin's fixative for 24 h. The numbers of lung metastasis nodule were counted, the statistics was evaluated using Mann-Whitney U test.

[5] = Paclitaxel injection 24 mg/kg × 4, once every three days

For CC(=O)O[C@H]1C(=O)[C@@]2(C)[C@H]([C@H](OC(=O)c3ccccc3)[C@]3(O)C[C@H](OC(=O)[C@H](O)[C@@H](NC(=O)c4ccccc4)c4ccccc4)C(C)=C1C3(C)C)[C@]1(OC(C)=O)CO[C@@H]1C[C@@H]2O [Paclitaxel, reference compound], the “Lung metastasis nodule counts” value (lewis lung cancer [1]; listed as TAXOL) was 24.9 ± 9, the “Lung metastasis nodule counts” value (lewis lung cancer [1]; listed as Taxol) was “no significant improvement” and the RTV [2] was 3.18 ± 2.735. The T/C [2] was 17.64%, the TGI [2] was 84.9% and the “Tumor volume Beginning” value [2] was 133 ± 39.8 mm^3. The “Tumor volume End” value [2] was 422 ± 404.6 mm^3, the Tumor weight [2] was 0.43 ± 0.416 g and the “Body weight Beginning” value (Human lung cancer H460; [5]) was 18.9 ± 1.28 g. The “Body weight End” value (Human lung cancer H460; [5]) was 18.6 ± 1.41 g, the RTV (Human lung cancer H460; [5]) was 11.9 ± 3.16 and the T/C (Human lung cancer H460; [5]) was 35.6%. For the same molecule, the “Tumor volume Beginning” value (Human lung cancer H460; [5]) was 130 ± 36.7 mm^3, the “Tumor volume End” value (Human lung cancer H460; [5]) was 1583 ± 507.2 mm^3 and the Tumor weight (Human lung cancer H460; [5]) was 1.16 ± 0.410 g. The TGI (Human lung cancer H460; Paclitaxel injection 24 mg/kg × 4, once every three days, listed as Paclitaxel injection) was 61.0%, the TGI (Human lung cancer H460; Paclitaxel injection 24 mg/kg × 4, once every three days, listed as paclitaxel) was 61% and the “Body weight lost compared with the average weight at the beginning of grouping” value (Human lung cancer H460; paclitaxel 24 mg/kg intermittently) was 2. The “Tumor growth inhibition rate compared with negative control” value (Human lung cancer H460; paclitaxel 24 mg/kg, after the fourth administration) was 65%, the Lung weight (lewis lung cancer [3]) was 497 ± 491 mg and the “Lung metastasis nodule counts” value (lewis lung cancer [3]; listed as TAXOL) was 38.5 ± 28. For the same molecule, the “Lung metastasis nodule counts” value (lewis lung cancer [3]; listed as Taxol) was “no significant improvement”, the Lung weight [4] was 190 ± 49 mg and the “Lung metastasis nodule counts” value ([4]; listed as TAXOL) was 41.2 ± 9. The “Lung metastasis nodule counts” value ([4]; listed as Taxol) was “no significant improvement”.
